Assay results taken from article PMC12117998, “First Steps toward the Design of Peptides that Influence the Intracellular Palmitoylation Machinery” (Chembiochem, 2025).
No end group written: not given here.

Key:
[1] = system: EGFR signaling in SW480 cells; assay: EGFR‐related signaling cascade (immunoblot); type: cell-based, human; settings: SW480, serum‐starved, 15 μM DC‐2 for 6 h
Protocol: (§1) SW480 and SW620 cells (1,200,000) were seeded into a 6‐well plate. The next day, cells were once washed with PBS and starved for 18 h with DMEM + 0.2% BSA. Next, 15 μM DC‐2 diluted in DMEM + 0.2% BSA was incubated with the cells for 6 h. Control wells were only treated with the starvation medium. Afterward, all wells were washed once with PBS and 200 ng ml^−1 EGF diluted in DMEM + 0.2% BSA was added for 15 min. Cells were again washed once with PBS and ice‐cold lysis buffer (25 mM Tris, 150 mM NaCl,1 mM TCEP, 2 mM EDTA, 1% Triton‐X‐100, pH 7.4) supplemented with Halt Protease and Phosphatase Inhibitor Cocktail (Thermo Fisher) was added to scrape the cells from the well. Lysates were incubated on ice for 30 min slightly shaking. After centrifugation for 30 min at 14,000 rpm at 4 °C, lysates were mixed with 4X SDS‐PAGE loading buffer (200 mM Tris‐HCl pH 6.8, 400 mM dithiothreitol, 8% SDS, 0.4% bromophenol blue, and 40% glycerol) and heated at 95 °C for 5 min. Protein samples were analyzed by SDS‐PAGE and immunoblotting. The following antibodies were used: anti‐EGFR (Cell Signaling Technology (CST) Cat#4267), anti‐pEGFR (CST Cat #3777), anti‐AKT (CST Cat#9272); anti‐pAKT (CST Cat#4060); anti‐ERK1/2 (CST Cat#4695); anti‐pERK1/2 (CST Cat#4370); anti‐β‐actin‐horseradish peroxidase (HRP) (Santa Cruz Biotechnology Cat# sc‐47778 HRP); or anti‐rabbit‐HRP conjugate (CST Cat#7074S). Images were cropped, processed, and quantified using the ImageLab software (BioRad).

[2] = system: EGFR signaling in SW620 cells; assay: EGFR‐related signaling cascade (immunoblot); type: cell-based, human; settings: SW620 (low EGFR expression), serum‐starved, 15 μM DC‐2 for 6 h, ± 200 ng ml^−1 EGF 15 min, n = 3
Protocol: as §1

## GLRKRLRKFRNKKMDHHCPW-NH2 [DC‐2, CPP sC18* fused to the DHHC motif derived from ZDHHC2/3/6/7/15/16/20]
[1]; n = 3 (Figure 8B)
  ERK and AKT phosphorylation, peptide only vs untreated: slight increase in ERK and AKT phosphorylation
[1]; then 200 ng ml^−1 EGF 15 min, n = 3 (Figure 8B,C)
  EGFR and ERK phosphorylation, peptide and EGF vs EGF only: increase in EGFR and ERK phosphorylation
[2]
  effects on EGFR signaling: no effects
